# Measurements from patent US10590115B2, “Tetrahydroquinazoline derivatives useful as anticancer agents” (PFIZER INC., priority 2018, dated 2020).
# Key:
# KRAS G12C in H358 cells = biological target: T1, KRAS G12C in H358 cells (Homo sapiens, UniProt P01116, G12C); assay: H358 Cell Activity Assay (Raf-1 RBD capture of active Ras, MSD); type: cell-based; details: 6 hours treatment
# T1 construct: endogenous in cells; host or cells: H358
# Protocol: (§1) Compounds presented in the present invention lead to the accumulation of the GDP bound Ras upon treatment of human cancer cell line.
# (§2) The accumulation of the GDP-bound KRAS G12C in cellular environment was measured based on the principle that KRAS G12C only binds to its downstream kinase; Raf-1 (MAP Kinase Kinase Kinase), when in its active-GTP bound state. In this state, Ras binded to a domain of Raf-1 kinase referred to as the Ras Binding Domain (RBD).
# (§3) H358 cells were grown in RPMI 1640 medium (Gibco 11875) supplemented with 10% fetal bovine serum and 1% penicillin/streptomycin. Cells were seeded in 96-well tissue culture plates at a density of 40,000 cells/well and allowed to attach for 16-24 hours. Test compounds were prepared as a 10 mM stock in DMSO and serially diluted in 100% DMSO using a 3-fold dilution scheme. An intermediate 5× concentrated plate in complete growth medium was made and 25 μl/well was added to the 100 μl of cells for a final concentration of 0.1% DMSO. Each concentration of exemplary compound was tested in duplicate. The negative control wells were cells with control inhibitor at 10 μM, and the positive control wells were cells without drugs, DMSO only. Plates were incubated for 6 hours at 37° C., 5% CO2. Following treatment, cells were washed 3× with ice-cold PBS and 100 μl/well ice-cold 1× Assay/Lysis. Buffer with protease inhibitors was added (25 mM HEPES, pH 7.5, 150 mM NaCl, 1% NP-40, 10 mM MgCl2, 1 mM EDTA, 2% Glycerol). Following lysis samples were frozen at −80° C.
# (§4) Raf-1 RBD (LJIC-1988A1) was diluted to 100 ng/well in PBS and 5 μl/well was spot coated onto MSD high bind SECTOR plates (L15XB). Plates were incubated at room temperature for 1 hour on an orbital shaker. Plates were washed with PBS/0.05% Tween-20 and 50 μl/well of thawed lysate samples were added, followed by 50 μl of 1% MSD Blocker A in PBS/0.05% Tween-20 (R93BA). Plates were incubated for 1 hour on an orbital shaker and washed with PBS/0.05% Tween-20. 25 μl/well of Anti-pan-Ras Antibody (Cell Biolabs 244003) diluted 1:3000 was added in 1% MSD Blocker A solution and plates were incubated for 1 hour on an orbital shaker and washed with PBS/0.05% Tween-20. SULFO-TAG goat anti-mouse secondary antibody (MSD R32AC) was diluted 1:500 in MSD Blocker A solution and added at 25 μL/well. Plates were incubated for 1 hour on an orbital shaker and washed with PBS/0.05% Tween-20. 150 μl/well of Read Buffer T (MSD R92TC) diluted 1:3 in H2O was added and plates were read on a Meso Scale Discovery Sector Imager S600.
# (§5) KRAS signal was normalized to maximum inhibition and DMSO control values, and IC50 values were generated using a 4 parameter fit of the dose response curve. The decrease in IC50 reflects that the exemplary compound lead to a higher level of accumulation of GDP-bound KRAS G12C than another exemplary compounds at specific timepoint of treatment of cancer cell line.
# [1] = biological target: T2, KRAS G12C in MiaPaCa2 cells (Homo sapiens, UniProt P01116, G12C); assay: MiaPaCa2 Cell Activity Assay (Raf-1 RBD capture of active Ras, MSD); type: cell-based; details: MIAPaCa-2 cells, 6 hours treatment; assay limit is 30.0 μM
# T2 construct: endogenous in cells; host or cells: MiaPaCa2
# Protocol: MiaPaCa2 Cell Activity Assay
# as §1, §2
# as §3, with “MiaPaCa2” for “H358”, “DMEM” for “RPMI 1640”, “11995)” for “11875)”
# as §4, §5
# [2] = biological target: T3, GDP-loaded kRas (1-169) G12C, C51S, C80L, C118S (Homo sapiens, UniProt P01116, C118S/C51S/C80L/G12C); assay: Mass Spectrometry Reactivity Assay (MSRA), covalent adduct with kRas G12C; type: binding; details: 0.5 h at room temperature; 5 μM KRas protein; typical final concentration of the compounds 10 μM
# T3 construct: GDP-loaded kRas (1-169) G12C, C51S, C80L, C118S
IC50 (KRAS G12C in H358 cells),IC50 [1],% Modification (0.5 h) [2],SMILES
0.102 µM,0.068 µM,72%,"C=CC(=O)N1CCN(c2nc(N3CC(N(C)C)C3)nc3c2C[C@@H](C)[C@H](c2c(C)c(Cl)cc4[nH]ncc24)C3)CC1 [Example F14, 1-(4-{(6R,7R)-7-(6-chloro-5-methyl-1H-indazol-4-yl)-2-[3-(dimethylamino)azetidin-1-yl]-6-methyl-5,6,7,8-tetrahydroquinazolin-4-yl}piperazin-1-yl)prop-2-en-1-one]"
0.27 µM,0.382 µM,74%,"C=CC(=O)N1CCN(c2nc(OC[C@@H]3CCCN3C)nc3c2C[C@@H](C)[C@H](c2c(C)ccc4[nH]ncc24)C3)CC1 [Example C9, 1-{4-[(6R,7R)-6-methyl-7-(5-methyl-1H-indazol-4-yl)-2-{[(2S)-1-methylpyrrolidin-2-yl]methoxy}-5,6,7,8-tetrahydroquinazolin-4-yl]piperazin-1-yl}prop-2-en-1-one]"
0.277 µM,0.285 µM,79%,"C=CC(=O)N1CCN(c2nc(N3CC(N(C)C)C3)nc3c2C[C@@H](C)[C@H](c2c(C)ccc4[nH]ncc24)C3)CC1 (single isomer, unassigned) [Example F2]"

SMILES,IC50 (KRAS G12C in H358 cells),IC50 [1],% Modification (0.5 h) [2]
"C=CC(=O)N1CCN(c2nc(N3CC(N(C)C)C3)nc3c2C[C@@H](C)[C@H](c2c(Cl)ccc4[nH]ncc24)C3)CC1 (relative stereo) [Example F5, 1-(4-{(6R,7R)-rel-7-(5-chloro-1H-indazol-4-yl)-2-[3-(dimethylamino)azetidin-1-yl]-6-methyl-5,6,7,8-tetrahydroquinazolin-4-yl}piperazin-1-yl)prop-2-en-1-one]",0.145 µM,0.154 µM,72%
